Earlier results as cited in patent US20190328719A1, “METHODS OF TREATING DEVELOPMENTAL DISORDERS AND/OR SEIZURE DISORDERS WITH FLUPIRTINE” (Ovid Therapeutics Inc., priority 2016, published 2019).
Where a name gives a salt, the structure may show the parent alone. Read-outs that look alike come from different tables or passages of the source.

Legend:
[1] = cited from earlier work; for plasma elimination half-life: healthy young volunteers, single dose
[2] = cited from earlier work
[3] = three-month efficacy study, insomnia; cited from earlier work
[4] = patients with a history of drug abuse; cited from earlier work
[5] = cited from earlier work; for Cmax (without correction for Cmin): 14 days of administration
[6] = cited from earlier work; remark: listed apart in the source
[7] = cited from earlier work; remark: listed apart in the source
[8] = dose range 200-400 mg three times daily

For `CCOC(=O)Nc1ccc(NCc2ccc(F)cc2)nc1N` [flupirtine maleate], which Cmax ([1]; rectal, flupirtine maleate 150 mg) is on record?
The Cmax was “about 0.89 mg/L”.

And the water solubility ([2]; listed as maleate salt)?
Its water solubility is “water soluble”.

For `CCOC(=O)Nc1ccc(NCc2ccc(F)cc2)nc1N` [flupirtine], which “time to steady-state plasma concentrations” value ([1]; 75 or 150 mg at 12 hour intervals) is on record?
Its value is 2 days.

What about the plasma elimination half-life ([1]; intravenous) of the same molecule?
Its plasma elimination half-life is “about 8.5 hours”.

What about the plasma elimination half-life ([1]; oral) of the same molecule?
Its plasma elimination half-life is ~9.6 h.

What about the plasma elimination half-life ([1]; rectal) of the same molecule?
The plasma elimination half-life was ~10.7 h.

What about the “half-life following intravenous administration” value ([1]; intravenous) of the same molecule?
Its value is “about 1.8 hours”.

What about the “relation of plasma concentrations to dose” value ([1]; range of 50 to 300 mg) of the same molecule?
Its value is “linearly related to dose”.

What about the Bioavailability ([1]; rectal dose, in comparison with intravenous flupirtine tartrate 80 mg) of the same molecule?
Its Bioavailability is “about 72.5%”.

What about the “time until it appears in the plasma” value ([1]; single oral dose 100 mg or 200 mg, healthy volunteers) of the same molecule?
The value was 15 to 30 min.

And the “peak plasma concentration (Cmax)” value ([1]; single oral dose 100 mg)?
Its value is “approximately 0.8 mg/L”.

And the “peak plasma concentration (Cmax)” value ([1]; single oral dose 200 mg)?
The value was ~2.0 µg/mL.

What about the water solubility [2] of the same molecule?
The water solubility was “poorly water soluble”.

For `Oc1noc2c1CCNC2` [gaboxadol, 4,5,6,7-tetrahydroisoxazolo [5,4-c]pyridine-3-ol], which “effects in sleep onset and sleep maintenance” value [3] is on record?
The value was “failed to show significant effects in sleep onset and sleep maintenance”.

What about the psychiatric adverse events [4] of the same molecule?
Its psychiatric adverse events is “steep increase in psychiatric adverse events”.

Which results are given for `CC(=O)[C@H]1CC[C@H]2[C@@H]3CC[C@H]4C[C@](C)(O)CC[C@]4(C)[C@H]3CC[C@]12C` [ganaxolone]?
Cmin ([5]; 50 mg group): 0.00234 µg/mL; Cmin ([5]; 200 mg group): 0.02379 µg/mL; Cmin ([5]; 500 mg group): 0.05671 µg/mL; Cmax (without correction for Cmin) ([5]; 50 mg group): 0.032 µg/mL; Cmax (without correction for Cmin) ([5]; 200 mg group): 0.106 µg/mL; Cmax (without correction for Cmin) ([5]; 500 mg group): 0.376 µg/mL; AUC and Cmax with increasing dose ([5]; in vivo): linear and proportional increase; half-life ([5]; in vivo): about 20 hours; Cmax ([5]; single 900 mg dose): 0.293 ± 0.0638 µg/mL

For `OC(c1ccccc1)(c1ccccc1)C1CCCCN1` (stereo not drawn) [pipradrol], which “effects of high doses” value [6] is on record?
The value was “uncoordinated activity and ataxia, followed by tremors and clonic convulsions”.

For `CCOC(=O)Nc1ccc(NCc2ccc(F)cc2)cc1N` [retigabine, N-[2-amino-4-(4-fluorobenzylamino)-phenyl] carbamic acid ethyl ester], which between-subject variability [7, 8] is on record?
Its between-subject variability is 35-50%.

And the linearity of pharmacokinetics [7, 8]?
The linearity of pharmacokinetics was “linear”.

What about the “elimination half-lives (t/2)” value ([7]; in vivo) of the same molecule?
The value was 7 to 11 h.

And the median plasma half-life ([7]; in vivo)?
Its median plasma half-life is 6 to 8 h.

And the Absolute oral bioavailability ([7]; relative to an intravenous dose)?
The Absolute oral bioavailability was “approximately 60%”.
